# Experimental data published in patent EP4534086A1, “TREATMENT OF LEUKODYSTROPHY” (priority 2023, dated 2025).
# Key:
# [1] = test system: Vimentin, Iba1 and IL-6 / MBP and MOG; experiment: Gene-expression signature from RT-qPCR of cerebellum (inflammation/myelin ratio); assay type: in vivo, mice; conditions: donepezil vs vehicle
# Procedure: Total RNAs were isolated from cerebellum tissues using the Nucleospin® total RNA isolation kit (Macherey-Nagel, Germany). The concentrations of isolated RNA from each sample were assessed using a NanoDrop 2000 Spectrophotometer (Thermo Scientific, USA). 10 µL of the isolated RNA were equalized to 20 microlitres (µL) using RNase-free water. Then, the cDNA was synthesized by reverse transcription using the High-Capacity cDNA manufacture kit (Applied Biosystems™, Thermo Fisher Scientific, USA). Equal volumes of the isolated RNA and cDNA mastermix were mixed, centrifuged, and loaded in the thermal cycler (T100™, BIO-RAD, USA). The cDNA was diluted 1:2 with RNase-free water and stored at -20 deg.°C prior to qPCR analysis. The manufactured cDNA was amplified using multi-target qPCR. cDNA and PCR mastermix, containing the target and endogenous primers, as well as the Taqman mastermix, were loaded on a 96-well PCR fast plate (Thermo Fisher Scientific, USA) in an ice block. […] Gene expression data were analyzed using the Livak and Schmittgen (2001) ΔΔCt method, to produce a relative quantity (RQ) value of target gene expression relative to GAPDH expression as per formula in equations 1-3: (1) ΔCt=Ct target- Ct endogenous; (2) ΔΔCt= ΔCt sample- ΔCt control sample; (3) RQ=2-ΔΔCt.
# Data normality was assessed using the Shapiro-Wilk test. […]
# Sig-1R = biological target: T1, Sig-1R (Rattus norvegicus, UniProt Q9R0C9); conditions: rats; cited from earlier work
# T1 construct: host or cells: living rats
# T1 sequence (Q9R0C9 whole entry): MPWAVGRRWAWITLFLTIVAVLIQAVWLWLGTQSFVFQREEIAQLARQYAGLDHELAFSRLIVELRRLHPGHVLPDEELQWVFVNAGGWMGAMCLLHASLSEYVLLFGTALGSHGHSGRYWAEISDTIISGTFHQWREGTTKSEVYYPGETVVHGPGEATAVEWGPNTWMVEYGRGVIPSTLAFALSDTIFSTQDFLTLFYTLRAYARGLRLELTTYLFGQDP
structure (smiles),measurement,setting,value
"COc1cc2c(cc1OC)C(=O)C(CC1CCN(Cc3ccccc3)CC1)C2 (racemic) [donepezil, (RS)-2-[(1-Benzyl-4-piperidyl)methyl]-5,6-dimethoxy-2,3-dihydroinden-1-one]","gene-expression-signature (Vimentin, Iba1 and IL-6 divided by MBP and MOG)","[1]; twitcher mice, p=0.0016",significant decrease
same,"gene-expression-signature (Vimentin, Iba1 and IL-6 divided by MBP and MOG)","[1]; wild-type mice, p=0.2495",no significant difference
same,dose corresponding to EC50 for receptor occupancy,Sig-1R,1.07 mg/kg
